PubChem BioAssay AID248 (DTP/NCI, 2004)
Inconclusive results and toxic doses are left out. Rule as the data show it: active = T/C of 150% or more; inactive = T/C below 125%.

Tested on: L1210 leukemia ip in BDF1 mice, survival T/C
Experiment: NCI In Vivo Anticancer Drug Screen. Data for tumor model L1210 Leukemia (intraperitoneal) in B6D2F1 (BDF1) mice
Conditions: endpoint: mean survival time, schedule: Q04DX003 (ip), higher = longer survival
How it was run: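 Each compound was tested against a transplantable tumor grown in mice. The endpoint was survival, with treated animals benchmarked against vehicle controls as a simple ratio.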

Measured: T/C

O=[N+]([O-])c1ncn(Cc2ccccc2)c1Br
inactive: dose: 100.0 mg/kg/injection, vehicle: Klucel (hydroxypropylcellulose) (HPC) 91 % of control | dose: 200.0 mg/kg/injection, vehicle: Klucel (hydroxypropylcellulose) (HPC) 94 % of control | dose: 400.0 mg/kg/injection, vehicle: Klucel (hydroxypropylcellulose) (HPC) 89 % of control

OCCOC1CCCCC=C1Br (stereo unspecified)
inactive: dose: 100.0 mg/kg/injection, vehicle: saline with Tween-80 113 % of control | dose: 200.0 mg/kg/injection, vehicle: saline with Tween-80 110 % of control | dose: 400.0 mg/kg/injection, vehicle: saline with Tween-80 102 % of control
